Test results: the supplement of paper PMC11368000

Tests used:
Settings in all cases: exposure time: 90 min
1516 = donor line of iPSC-derived cardiomyocytes; assay: POD (EC10) for decrease in total cell number (cytotoxicity) vs vehicle; higher = less potent (higher point of departure)
Method: (§1)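 Human iPSC-derived cardiomyocytes from 16 donors were exposed for 90 min at 37 °C to each PFAS at 0.1, 1, 10 and 100 µM in 0.5% DMSO, 384-well plates. Kinetic Ca2+ flux (FLIPR) and Hoechst nuclei counts were normalised to vehicle wells and fitted with a hierarchical Bayesian Hill model to give donor-specific PODs: EC05 for beat-rate increase or decrease and for decay-to-rise ratio increase (QT proxy), EC95 for peak-frequency loss (asystole), EC10 for total cell number loss. 0.03 µM is the lower bound.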

1309 = donor line of iPSC-derived cardiomyocytes; assay: as above
Method: as §1

20084 = donor line of iPSC-derived cardiomyocytes; assay: as above
Method: as §1

30171 [1] = donor line of iPSC-derived cardiomyocytes; assay: as above
Method: as §1

20032 = donor line of iPSC-derived cardiomyocytes; assay: as above
Method: as §1

1392 = donor line of iPSC-derived cardiomyocytes; assay: as above
Method: as §1

1518 [2] = donor line of iPSC-derived cardiomyocytes; assay: as above
Method: as §1

11235 = donor line of iPSC-derived cardiomyocytes; assay: as above
Method: as §1

30145 = donor line of iPSC-derived cardiomyocytes; assay: as above
Method: as §1

1531 [3] = donor line of iPSC-derived cardiomyocytes; assay: as above
Method: as §1

1565 = donor line of iPSC-derived cardiomyocytes; assay: as above
Method: as §1

1535 = donor line of iPSC-derived cardiomyocytes; assay: as above
Method: as §1

1083 [4] = donor line of iPSC-derived cardiomyocytes; assay: as above
Method: as §1

1118 = donor line of iPSC-derived cardiomyocytes; assay: as above
Method: as §1

1434 = donor line of iPSC-derived cardiomyocytes; assay: as above
Method: as §1

1368 = donor line of iPSC-derived cardiomyocytes; assay: as above
Method: as §1

30171 [5] = assay: POD (EC95) for loss of peak frequency (asystole) vs vehicle; higher = less potent (higher point of departure)
Method: as §1

1518 [6] = assay: as above
Method: as §1

1531 [7] = assay: as above
Method: as §1

1083 [8] = assay: as above
Method: as §1

Compound	POD vs vehicle 1516 [µM]	POD vs vehicle 1309 [µM]	POD vs vehicle 20084 [µM]	POD vs vehicle 30171 [1] [µM]	POD vs vehicle 20032 [µM]	POD vs vehicle 1392 [µM]	POD vs vehicle 1518 [2] [µM]	POD vs vehicle 11235 [µM]	POD vs vehicle 30145 [µM]	POD vs vehicle 1531 [3] [µM]	POD vs vehicle 1565 [µM]	POD vs vehicle 1535 [µM]	POD vs vehicle 1083 [4] [µM]	POD vs vehicle 1118 [µM]	POD vs vehicle 1434 [µM]	POD vs vehicle 1368 [µM]	POD vs vehicle 30171 [5] [µM]	POD vs vehicle 1518 [6] [µM]	POD vs vehicle 1531 [7] [µM]	POD vs vehicle 1083 [8] [µM]
NC(=O)C(F)(F)C(F)(F)C(F)(F)C(F)F	> 100	> 100	> 100	0.93	> 100	> 100	> 100	> 100	> 100	> 100	> 100	> 100	> 100	> 100	> 100	> 100	> 100	> 100	> 100	> 100
O=S(=O)(O)C(F)(F)C(F)(F)C(F)(F)C(F)(F)C(F)(F)C(F)(F)F [Perfluorohexanesulfonic_acid]	> 100	> 100	> 100	> 100	> 100	> 100	> 100	> 100	> 100	> 100	> 100	> 100	> 100	> 100	> 100	> 100	> 100	> 100	> 100	> 100
OCC(F)(F)C(F)(F)C(F)(F)F [Heptafluorobutanol]	> 100	> 100	> 100	> 100	> 100	> 100	> 100	> 100	> 100	> 100	> 100	> 100	> 100	> 100	> 100	> 100	> 100	> 100	> 100	> 100
O=C(O)C(F)(F)C(F)(F)C(F)(F)C(F)(F)C(F)(F)C(F)(F)C(F)(F)C(F)(F)F [Perfluorononanoic_acid]	> 100	> 100	> 100	> 100	> 100	> 100	> 100	> 100	> 100	> 100	> 100	> 100	> 100	> 100	> 100	> 100	82.8	> 100	> 100	> 100
